Measured values from PubChem BioAssay AID602356 (Sanford-Burnham Center for Chemical Genomics, 2012).
Several values for one entry are separate records, joined by “and”; a condition that tells them apart may be missing. Equal values may be shown once. Activity calls are given as the source filed them. The rule behind the calls is not given here.

Target: Neurotensin receptor type 1 (Homo sapiens) (UniProt P30989)
Assay: neurotensin receptor 1 activation – imaging, image-based, set 3, SAR follow-up (AID 602356)
Details: NTR1 image-based agonist assay, cellular imaging

Neurotensin receptor type 1 (Homo sapiens), sequence (P30989 whole entry, looked up): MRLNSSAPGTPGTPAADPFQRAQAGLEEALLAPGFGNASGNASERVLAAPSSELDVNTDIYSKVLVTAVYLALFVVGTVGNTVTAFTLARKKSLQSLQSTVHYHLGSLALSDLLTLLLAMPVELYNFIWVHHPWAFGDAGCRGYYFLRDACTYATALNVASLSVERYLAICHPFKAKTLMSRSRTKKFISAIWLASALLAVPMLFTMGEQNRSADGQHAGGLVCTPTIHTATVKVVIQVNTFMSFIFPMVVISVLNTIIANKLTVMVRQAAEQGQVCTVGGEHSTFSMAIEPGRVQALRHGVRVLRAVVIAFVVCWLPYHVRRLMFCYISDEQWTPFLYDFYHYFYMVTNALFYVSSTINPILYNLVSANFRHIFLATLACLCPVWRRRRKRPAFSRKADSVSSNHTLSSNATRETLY

SMILES	EC50
COc1cccc(OC)c1-c1cc(C(=O)NC2(C(=O)O)C3CC4CC(C3)CC2C4)nn1-c1ccnc2cc(Cl)ccc12 (stereo not given)	inactive
CC(C)C[C@H](NC(=O)c1cn(-c2ccnc3cc(Cl)ccc23)c(-c2ccccc2)n1)C(=O)O	inactive
CCc1ccc(-c2nnc3c4cc(OC)c(OC)cc4n(Cc4ccc(F)cc4)cc2-3)cc1	9.22 µM
CCOC(=O)c1cc(-c2c(OC)cccc2OC)n(-c2ccnc3cc(Cl)ccc23)n1	> 80 µM (inactive)
Cc1ccc(-c2nnc3c4cc5c(cc4n(Cc4ccc(F)cc4)cc2-3)OCO5)cc1C	inactive
COc1cc2c3nnc(-c4ccc(C)c(C)c4)c-3cn(Cc3ccc(C)cc3)c2cc1OC	4.9 µM
COc1cc2c3nnc(-c4ccc(F)cc4)c-3cn(Cc3ccccc3C)c2cc1OC	3.95 µM
COc1ccccc1-c1cc(C(=O)N[C@@H](CC(C)C)C(=O)O)nn1-c1ccnc2cc(Cl)ccc12	0.966 µM
COc1cc2nc(C3CC3)nc(N3CCN(S(=O)(=O)c4ccccc4)CC3)c2cc1OC	> 80 µM (inactive)
COc1ccc(-c2nnc3c4ccccc4n(Cc4ccccc4)cc2-3)cc1	inactive
COc1cc2nc(CC(C)C)nc(N3CCN(c4ccccc4OC)CC3)c2cc1OC	15.1 µM
COc1cc2c3nnc(-c4ccc(F)cc4)c-3cn(Cc3ccncc3)c2cc1OC	18.4 µM
COc1cc2nc(C)nc(N3CCN(c4ccccc4OC)CC3)c2cc1OC	> 80 µM (inactive)
Fc1ccc(Cn2cc3c(-c4ccc(Cl)cc4)nnc-3c3cc4c(cc32)OCO4)cc1	9.12 µM
COc1ccccc1-c1nc(C(=O)N[C@@H](CC(C)C)C(=O)O)cn1-c1ccncc1	> 80 µM (inactive)
COc1cc2c3nnc(-c4ccc(Cl)cc4)c-3cn(Cc3ccc(F)cc3)c2cc1OC	2.95 µM
COc1ccccc1N1CCN(c2nc(C3CCC3)nc3cc4c(cc23)OCO4)CC1	inactive
COc1cc2nc(C3CC3)nc(N3CCNCC3)c2cc1OC	> 80 µM (inactive)
COc1cc2nc(-c3ccccc3)nc(N3CCN(c4ccccc4F)CC3)c2cc1OC	> 80 µM (inactive)
COc1cc2nc(-c3ccccc3)nc(N3CCN(c4ccc(Cl)cc4)CC3)c2cc1OC	> 80 µM (inactive)
COc1ccc2nc(C3CC3)nc(N3CCN(c4ccccc4OC)CC3)c2c1	4.1 µM
Cc1ccc(Cn2cc3c(-c4ccc(F)cc4)nnc-3c3cc4c(cc32)OCO4)cc1	5.49 µM and 8.2 µM
COc1ccc(N2CCN(c3nc(C4CCC4)nc4cc(OC)c(OC)cc34)CC2)cc1	inactive

SMILES	EC50
COc1cc2ncc3c(-c4ccc(F)cc4)n[nH]c3c2cc1OC	> 80 µM (inactive)
COc1cc2nc(C3CCC3)nc(N3CCN(c4ccccc4[N+](=O)[O-])CC3)c2cc1OC	inactive
COc1cccc(OC)c1-c1nc(C(=O)N[C@@H](CC(C)C)C(=O)O)cn1-c1ccncc1	inactive
COc1cccc(N2CCN(c3nc(C4CCC4)nc4cc(OC)c(OC)cc34)CC2)c1	17.2 µM
COc1ccc(-c2nnc3c4ccccc4n(CCc4ccccc4)cc2-3)cc1	inactive
COc1cccc(OC)c1-c1nc(C(=O)O)cn1-c1ccncc1	> 80 µM (inactive)
COc1cc2nc(C3CC3)nc(N3CCN(C(=O)OC(C)(C)C)CC3)c2cc1OC	inactive
CCOc1cc2nc(-c3ccc(OC)c(OC)c3)nc(N3CCN(c4ccccc4F)CC3)c2cc1OC	> 80 µM (inactive)
CC(C)C[C@H](NC(=O)c1cn(-c2ccnc3cc(Cl)ccc23)c(-c2c(Cl)cccc2Cl)n1)C(=O)O	5.17 µM
COc1cc2c3nnc(-c4ccc(F)cc4)c-3cn(Cc3ccc(C)cc3C)c2cc1OC	5.82 µM
COc1cc2nc(C3CCC3)nc(N3CCN(c4c(C)cccc4C)CC3)c2cc1OC	inactive
Cc1ccc(Cn2cc3c(-c4ccc(F)cc4)nnc-3c3ccccc32)cc1	> 80 µM (inactive)
COc1cccc(OC)c1-c1nc(C(=O)N[C@@H](CC(C)C)C(=O)O)cn1-c1ccnc2cc(Cl)ccc12	2.01 µM and 4.14 µM
COc1cccc(OC)c1-c1nc(C(=O)NC2(C(=O)O)C3CC4CC(C3)CC2C4)cn1-c1ccnc2cc(Cl)ccc12 (stereo not given)	inactive
COc1cc2nc(C3CC3)nc(N3CCN(C(=O)c4ccccc4OC)CC3)c2cc1OC	inactive
COc1cc2nc(CCN3CCN(c4ccccc4OC)CC3)nc(N3CCN(c4ccccc4OC)CC3)c2cc1OC	inactive
Cc1ccc(Cn2cc3c(-c4ccc(Cl)cc4)nnc-3c3cc4c(cc32)OCO4)cc1	inactive
COc1ccc(-c2nnc3c4cc(OC)c(OC)cc4n(Cc4ccc(C)cc4)cc2-3)cc1	5.21 µM
COc1ccc(-c2nnc3c4ccccc4n(Cc4ccc(Cl)cc4)cc2-3)cc1	inactive
CCOc1ccc(-c2nnc3c4cc(OC)c(OC)cc4n(Cc4ccc(F)cc4)cc2-3)cc1	8.05 µM
COc1cc2c3nnc(-c4ccc(F)cc4)c-3cn(Cc3cccc(C)c3)c2cc1OC	6.34 µM and 6.55 µM
COc1cc2c3nnc(-c4ccc(C)cc4)c-3cn(Cc3ccc(C)cc3)c2cc1OC	6.82 µM
